Measured values published in PubChem BioAssay AID1259407 (Chemical Carcinogenesis Research Information System (CCRIS), 2018).
The source made the active and inactive calls. No rule for the calls is given here.

Test system: CCRIS mutagenicity, Ames/micronucleus/aberration tests
Assay: CCRIS mutagenicity studies

With `CSC1=N[C@@](C)(c2ccccc2)C(=O)N1Nc1ccccc1` as the compound, how does the mutagenic call (End Point: In vitro chromosomal aberrations, Test System: Human peripheral blood lymphocytes, Metabolic Activation: None) read?
Its mutagenic call is “active; positive”.

What about the mutagenic call (End Point: In vitro chromosomal aberrations, Test System: Human peripheral blood lymphocytes, Metabolic Activation: S-9) of the same compound?
The mutagenic call was “active; positive”.

What about the mutagenic call (End Point: In vivo micronucleus, Test System: Bone marrow polychromatic erythrocytes, Species: Mouse, Strain/Sex: CD-1/Male and female, Route: Intraperitoneal) of the same compound?
The mutagenic call was “inactive; negative”.

What about the mutagenic call (End Point: UDS, Test System: Rat hepatocytes, Species: Wistar/Male, Method: Autoradiography) of the same compound?
Its mutagenic call is “inactive; negative. (higher doses too toxic to score)”.

And the mutagenic call (Test System: Ames Salmonella typhimurium, Strain/Indicator: TA98, Metabolic Activation: None, Method: Plate incorporation and preincubation)?
The mutagenic call was “inactive; negative”.

And the mutagenic call (Test System: Ames Salmonella typhimurium, Strain/Indicator: TA98, Metabolic Activation: Rat, Liver, S-9, Method: Plate incorporation and preincubation)?
Its mutagenic call is “inactive; negative”.

What about the mutagenic call (Test System: Ames Salmonella typhimurium, Strain/Indicator: TA100, Metabolic Activation: None, Method: Plate incorporation and preincubation) of the same compound?
Its mutagenic call is “inactive; negative”.

And the mutagenic call (Test System: Ames Salmonella typhimurium, Strain/Indicator: TA100, Metabolic Activation: Rat, Liver, S-9, Method: Plate incorporation and preincubation)?
Its mutagenic call is “inactive; negative”.

And the mutagenic call (Test System: Ames Salmonella typhimurium, Strain/Indicator: TA102, Metabolic Activation: None, Method: Plate incorporation and preincubation)?
Its mutagenic call is “inactive; negative”.

What about the mutagenic call (Test System: Ames Salmonella typhimurium, Strain/Indicator: TA102, Metabolic Activation: Rat, Liver, S-9, Method: Plate incorporation and preincubation) of the same compound?
Its mutagenic call is “inactive; negative”.

What about the mutagenic call (Test System: Ames Salmonella typhimurium, Strain/Indicator: TA1535, Metabolic Activation: None, Method: Plate incorporation and preincubation) of the same compound?
The mutagenic call was “inactive; negative”.

What about the mutagenic call (Test System: Ames Salmonella typhimurium, Strain/Indicator: TA1535, Metabolic Activation: Rat, Liver, S-9, Method: Plate incorporation and preincubation) of the same compound?
Its mutagenic call is “inactive; negative”.

What about the mutagenic call (Test System: Ames Salmonella typhimurium, Strain/Indicator: TA1537, Metabolic Activation: None, Method: Plate incorporation and preincubation) of the same compound?
The mutagenic call was “inactive; negative”.

And the mutagenic call (Test System: Ames Salmonella typhimurium, Strain/Indicator: TA1537, Metabolic Activation: Rat, Liver, S-9, Method: Plate incorporation and preincubation)?
The mutagenic call was “inactive; negative”.

And the mutagenic call (Test System: Mouse lymphoma, Strain/Indicator: L5178Y (tk+/tk-), Metabolic Activation: None, Method: Microtiter fluctuation)?
The mutagenic call was “inactive; negative”.

And the mutagenic call (Test System: Mouse lymphoma, Strain/Indicator: L5178Y (tk+/tk-), Metabolic Activation: S-9, Method: Microtiter fluctuation)?
Its mutagenic call is “active; positive. (increase in small colony mutant frequency indicates clastogenicity)”.
